Reference: ChEMBL document CHEMBL1201862, “PubChem BioAssay data set” (2004)
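Method: 48-hour compound exposure of cells in 96-well plates, five concentrations, linear interpolation of endpoints. GI50 = concentration required for 50% inhibition of growth.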 Active and inactive are the calls of the source. Cut-off read from the data, not from the text of the source: active = GI50 up to about 1.1 µM and inactive = higher.

Legend:
Test in all cases: growth of human tumour cells (NCI), 48 h
NCI/ADR-RES = tested on: NCI/ADR-RES
OVCAR-3 = tested on: OVCAR-3
HOP-62 = tested on: HOP-62
HCT-15 = tested on: HCT-15
OVCAR-5 = tested on: OVCAR-5
M14 = tested on: M14
IGROV-1 = tested on: IGROV-1
OVCAR-4 = tested on: OVCAR-4
Hs-578T = tested on: Hs-578T
A549 = tested on: A549
K562 = tested on: K562
MDA-MB-231 = tested on: MDA-MB-231
HL-60 = tested on: HL-60
Malme-3M = tested on: Malme-3M
SNB-75 = tested on: SNB-75
OVCAR-8 = tested on: OVCAR-8
UACC-62 = tested on: UACC-62

Question: CC12CC(=O)C3C(CCC4=CC(=O)CCC43C)C1CC=C2CC(=O)O (centres undefined) was tested. Which GI50 (NCI/ADR-RES) did it give?
Answer: The GI50 was > 100 µM (inactive).

Question: And the GI50 (OVCAR-3)?
Answer: The GI50 was 98.2 µM (inactive).

Question: And the GI50 (HOP-62)?
Answer: Its GI50 is > 100 µM (inactive).

Question: What about the GI50 (HCT-15) of the same molecule?
Answer: Its GI50 is greater than 100 µM.

Question: What about the GI50 (OVCAR-5) of the same molecule?
Answer: The GI50 was > 100 µM (inactive).

Question: What about the GI50 (M14) of the same molecule?
Answer: Its GI50 is > 100 µM (inactive).

Question: And the GI50 (IGROV-1)?
Answer: Its GI50 is > 100 µM (inactive).

Question: And the GI50 (OVCAR-4)?
Answer: The GI50 was > 100 µM (inactive).

Question: And the GI50 (Hs-578T)?
Answer: Its GI50 is > 100 µM (inactive).

Question: And the GI50 (A549)?
Answer: The GI50 was > 100 µM (inactive).

Question: And the GI50 (K562)?
Answer: The GI50 was > 100 µM (inactive).

Question: What about the GI50 (MDA-MB-231) of the same molecule?
Answer: The GI50 was > 100 µM (inactive).

Question: And the GI50 (HL-60)?
Answer: Its GI50 is > 100 µM (inactive).

Question: And the GI50 (Malme-3M)?
Answer: The GI50 was > 100 µM (inactive).

Question: What about the GI50 (SNB-75) of the same molecule?
Answer: Its GI50 is > 100 µM (inactive).

Question: And the GI50 (OVCAR-8)?
Answer: The GI50 was > 100 µM (inactive).

Question: What about the GI50 (UACC-62) of the same molecule?
Answer: Its GI50 is > 100 µM (inactive).

Question: Nc1nc(-c2cccs2)cs1 was tested. Which GI50 (NCI/ADR-RES) did it give?
Answer: The GI50 was 91 µM (inactive).

Question: And the GI50 (OVCAR-3)?
Answer: The GI50 was > 100 µM (inactive).

Question: What about the GI50 (HOP-62) of the same molecule?
Answer: Its GI50 is > 100 µM (inactive).

Question: What about the GI50 (HCT-15) of the same molecule?
Answer: The GI50 was 83.4 µM.

Question: And the GI50 (OVCAR-5)?
Answer: Its GI50 is > 100 µM (inactive).

Question: And the GI50 (M14)?
Answer: Its GI50 is > 100 µM (inactive).

Question: And the GI50 (IGROV-1)?
Answer: Its GI50 is 47.3 µM (inactive).

Question: And the GI50 (OVCAR-4)?
Answer: The GI50 was > 100 µM (inactive).

Question: What about the GI50 (Hs-578T) of the same molecule?
Answer: The GI50 was 37.9 µM (inactive).

Question: And the GI50 (A549)?
Answer: Its GI50 is 58.6 µM (inactive).

Question: What about the GI50 (K562) of the same molecule?
Answer: The GI50 was > 100 µM (inactive).

Question: And the GI50 (MDA-MB-231)?
Answer: Its GI50 is 60.4 µM (inactive).

Question: And the GI50 (HL-60)?
Answer: Its GI50 is > 100 µM (inactive).

Question: What about the GI50 (Malme-3M) of the same molecule?
Answer: Its GI50 is > 100 µM (inactive).

Question: What about the GI50 (SNB-75) of the same molecule?
Answer: The GI50 was > 100 µM (inactive).

Question: What about the GI50 (OVCAR-8) of the same molecule?
Answer: Its GI50 is 58.7 µM (inactive).

Question: What about the GI50 (UACC-62) of the same molecule?
Answer: Its GI50 is 83.9 µM (inactive).

Question: For O=C1N/C(=N/N=C/c2ccccc2)N/C1=C\c1c[nH]c2ccccc12, which GI50 (NCI/ADR-RES) is on record?
Answer: Its GI50 is > 100 µM (inactive).

Question: What about the GI50 (OVCAR-3) of the same molecule?
Answer: The GI50 was 49.7 µM (inactive).

Question: What about the GI50 (HOP-62) of the same molecule?
Answer: Its GI50 is 61.4 µM (inactive).

Question: What about the GI50 (HCT-15) of the same molecule?
Answer: Its GI50 is greater than 100 µM.

Question: And the GI50 (OVCAR-5)?
Answer: The GI50 was > 100 µM (inactive).

Question: And the GI50 (M14)?
Answer: The GI50 was 71.6 µM (inactive).

Question: What about the GI50 (IGROV-1) of the same molecule?
Answer: The GI50 was > 100 µM (inactive).

Question: And the GI50 (OVCAR-4)?
Answer: The GI50 was > 100 µM (inactive).

Question: And the GI50 (Hs-578T)?
Answer: The GI50 was > 100 µM (inactive).

Question: And the GI50 (A549)?
Answer: Its GI50 is 28 µM (inactive).

Question: And the GI50 (K562)?
Answer: The GI50 was 47.1 µM (inactive).

Question: And the GI50 (MDA-MB-231)?
Answer: Its GI50 is 42.9 µM (inactive).

Question: And the GI50 (HL-60)?
Answer: The GI50 was 67.3 µM (inactive).

Question: And the GI50 (Malme-3M)?
Answer: Its GI50 is > 100 µM (inactive).

Question: What about the GI50 (SNB-75) of the same molecule?
Answer: The GI50 was > 100 µM (inactive).

Question: And the GI50 (OVCAR-8)?
Answer: The GI50 was 38.2 µM (inactive).

Question: And the GI50 (UACC-62)?
Answer: The GI50 was > 100 µM (inactive).

Question: With N#Cc1c(=O)c2cc([N+](=O)[O-])ccc2n2c1[nH]c1ccccc12 as the molecule, how does the GI50 (NCI/ADR-RES) read?
Answer: Its GI50 is 3.54 µM (inactive).

Question: And the GI50 (OVCAR-3)?
Answer: The GI50 was 3.43 µM (inactive).

Question: What about the GI50 (HOP-62) of the same molecule?
Answer: The GI50 was 9.55 µM (inactive).

Question: And the GI50 (HCT-15)?
Answer: Its GI50 is 7.64 µM.

Question: What about the GI50 (OVCAR-5) of the same molecule?
Answer: The GI50 was 6 µM (inactive).

Question: And the GI50 (M14)?
Answer: The GI50 was 7.96 µM (inactive).

Question: What about the GI50 (IGROV-1) of the same molecule?
Answer: Its GI50 is 12.5 µM (inactive).

Question: What about the GI50 (OVCAR-4) of the same molecule?
Answer: The GI50 was 3.38 µM (inactive).

Question: What about the GI50 (Hs-578T) of the same molecule?
Answer: Its GI50 is 3.44 µM (inactive).

Question: What about the GI50 (A549) of the same molecule?
Answer: The GI50 was 7.57 µM (inactive).

Question: What about the GI50 (K562) of the same molecule?
Answer: Its GI50 is 3.78 µM (inactive).

Question: And the GI50 (MDA-MB-231)?
Answer: Its GI50 is 4.76 µM (inactive).

Question: What about the GI50 (HL-60) of the same molecule?
Answer: The GI50 was 4.81 µM (inactive).

Question: What about the GI50 (Malme-3M) of the same molecule?
Answer: Its GI50 is 8.89 µM (inactive).

Question: What about the GI50 (SNB-75) of the same molecule?
Answer: The GI50 was 10.7 µM (inactive).

Question: What about the GI50 (OVCAR-8) of the same molecule?
Answer: Its GI50 is 5.27 µM (inactive).

Question: What about the GI50 (UACC-62) of the same molecule?
Answer: Its GI50 is 4.59 µM (inactive).

Question: CCCCCCCCC[C@@H]1C[C@@H]2CCC3C(C(=O)OC)=C(C)N=C(N1)N32 (some centres undefined) was tested. Which GI50 (NCI/ADR-RES) did it give?
Answer: The GI50 was 18.7 µM (inactive).

Question: What about the GI50 (OVCAR-3) of the same molecule?
Answer: Its GI50 is 3.21 µM (inactive).

Question: What about the GI50 (HOP-62) of the same molecule?
Answer: The GI50 was 6.17 µM (inactive).

Question: And the GI50 (HCT-15)?
Answer: The GI50 was 16.5 µM.

Question: What about the GI50 (OVCAR-5) of the same molecule?
Answer: The GI50 was 18 µM (inactive).

Question: What about the GI50 (M14) of the same molecule?
Answer: The GI50 was 5.46 µM (inactive).

Question: And the GI50 (IGROV-1)?
Answer: The GI50 was 4.72 µM (inactive).

Question: What about the GI50 (OVCAR-4) of the same molecule?
Answer: Its GI50 is 6.93 µM (inactive).

Question: And the GI50 (Hs-578T)?
Answer: Its GI50 is 4.66 µM (inactive).

Question: What about the GI50 (A549) of the same molecule?
Answer: The GI50 was 12.3 µM (inactive).

Question: And the GI50 (K562)?
Answer: Its GI50 is 5.25 µM (inactive).

Question: What about the GI50 (MDA-MB-231) of the same molecule?
Answer: The GI50 was 5.13 µM (inactive).

Question: What about the GI50 (HL-60) of the same molecule?
Answer: The GI50 was 3.47 µM (inactive).

Question: And the GI50 (Malme-3M)?
Answer: The GI50 was 10.5 µM (inactive).

Question: What about the GI50 (SNB-75) of the same molecule?
Answer: Its GI50 is 5.71 µM (inactive).

Question: And the GI50 (OVCAR-8)?
Answer: The GI50 was 4.79 µM (inactive).

Question: And the GI50 (UACC-62)?
Answer: The GI50 was 4.52 µM (inactive).

Question: Which results are given for N#CC1CNC(N)NC1N (centres undefined)?
Answer: GI50 (NCI/ADR-RES): > 100 µM (inactive); GI50 (OVCAR-3): > 100 µM (inactive); GI50 (HOP-62): > 100 µM (inactive); GI50 (HCT-15): > 100 µM; GI50 (OVCAR-5): > 100 µM (inactive); GI50 (M14): > 100 µM (inactive); GI50 (IGROV-1): > 100 µM (inactive); GI50 (OVCAR-4): > 100 µM (inactive); GI50 (Hs-578T): > 100 µM (inactive); GI50 (A549): > 100 µM (inactive); GI50 (K562): 64.1 µM (inactive); GI50 (MDA-MB-231): > 100 µM (inactive); GI50 (HL-60): > 100 µM (inactive); GI50 (Malme-3M): > 100 µM (inactive); GI50 (SNB-75): > 100 µM (inactive); GI50 (OVCAR-8): > 100 µM (inactive); GI50 (UACC-62): > 100 µM (inactive)

Question: S=C(NN=C1NCCCCN1)Nc1ccc(Cl)cc1 was tested. Which GI50 (NCI/ADR-RES) did it give?
Answer: The GI50 was 23.4 µM (inactive).

Question: What about the GI50 (OVCAR-3) of the same molecule?
Answer: Its GI50 is 35.8 µM (inactive).

Question: What about the GI50 (HOP-62) of the same molecule?
Answer: The GI50 was 11 µM (inactive).

Question: And the GI50 (HCT-15)?
Answer: Its GI50 is 6.4 µM.

Question: What about the GI50 (OVCAR-5) of the same molecule?
Answer: Its GI50 is 14.8 µM (inactive).

Question: And the GI50 (M14)?
Answer: The GI50 was 8.09 µM (inactive).

Question: What about the GI50 (IGROV-1) of the same molecule?
Answer: The GI50 was 16 µM (inactive).

Question: And the GI50 (OVCAR-4)?
Answer: Its GI50 is 38.9 µM (inactive).

Question: And the GI50 (Hs-578T)?
Answer: The GI50 was 60 µM (inactive).

Question: And the GI50 (A549)?
Answer: Its GI50 is 11.8 µM (inactive).

Question: What about the GI50 (K562) of the same molecule?
Answer: Its GI50 is 5.85 µM (inactive).

Question: What about the GI50 (MDA-MB-231) of the same molecule?
Answer: Its GI50 is 21 µM (inactive).

Question: And the GI50 (HL-60)?
Answer: The GI50 was 8.18 µM (inactive).

Question: And the GI50 (Malme-3M)?
Answer: The GI50 was 17.1 µM (inactive).

Question: What about the GI50 (SNB-75) of the same molecule?
Answer: Its GI50 is 23.8 µM (inactive).

Question: And the GI50 (OVCAR-8)?
Answer: The GI50 was 10.3 µM (inactive).

Question: And the GI50 (UACC-62)?
Answer: Its GI50 is 4.52 µM (inactive).
